Results taken from US20200093782A1, “ARIANTS OF 2-[6-(4-CHLOROPHENOXY)HEXYL]-OXIRANE-2-CARBOXYLIC ACID FOR USE IN THE TREATMENT, PREVENTION AND/OR AMELIORATION OF BRAIN DISEASES” (Meta-IQ ApS, priority 2016, published 2020).

Experiments:
rats [1] = experiment: Sucrose consumption in rats after drinking the drug (test of crossing the BBB); type: in vivo, rat
Protocol: First rats are given R(+)-etomoxir ethyl ester formulated water (4 mg/day) every day for 20 days. Then once a week the sucrose consumption was measured. This study is designed to test is R(+)-etomoxir ethyl ester reaches the brain and therefore is it can cross the blood-brain-barrier (BBB).
Blocking CPT-1 in hypothalamus (applied in the drinking water) […] food intake.

rats [2] = experiment: Long term memory test (light/dark shock compartment) with or without MK801; type: in vivo, rat; details: MK801, sub cutaneous injection 1 hour before the test
Protocol: Rats are put in a cage where in the dark part (where they like to be) the bedding gives a shock. They are put in the light part during training. The next day the rats are put in the light part again, when long term memory is there, they will not like to go in the dark part (shock compartment).
MK801, blocks the generation of memory.
(§1) Etomoxir was given by sub cutaneous injection 1 hour before the test.

C57B16 mice = experiment: Mouse EAE model (MOG 35-55), therapeutic treatment; type: in vivo; details: 1 mg/kg/day s.c. in olive oil for 2 weeks, start ten days after MOG injection
Excerpt: Six week old C57B16 mice were bred and kept at conventional animal facilities at the University of Copenhagen. Female Lewis rats, 2 months old were used for this study.
All animals were weighed and scored clinically on a daily basis. During progression of EAE, leading to motor disabilities, animals had water in a Petri dish and soaked chow for easy intake to ensure sufficient intake of liquid and nutrients. Healthy animals were used as comparison and control of the EAE exposed animals. […]
The animals were monitored daily, weighed and clinically scored according to the following scale (Imrich and Harzer 2001): 0, no clinical signs of EAE; 1, loss of tail tonus; 2, mild paresis in one or both hindlimbs; 3, moderate paresis in one or both hindlimbs; 4, severe paresis or paralysis in one or both hindlimbs; 5, paralysis in one or both hindlimbs and visible paresis in one or both forelimbs, incontinence; 6, moribund. […]
CPT1 Blockers Have a Therapeutic Effect in Rodent Models with EAE. […] The animals were daily tested for body weight and disease score (Disease was scored as follows; 0=no disease, 1=limp tail, 2=hind-limb paresis, 3=hind-limb paralysis, 4=hind/forelimb paralysis, and 5=death). […]

Lewis rats = experiment: Rat EAE model (MBP in CFA); type: in vivo
rats [3] = experiment: Short term memory test (3 corridors, alternation ratio) with or without MK801; type: in vivo, rat; details: MK801, sub cutaneous injection 1 hour before the test
Protocol: Rats are put in a compartment with 3 corridors. While looking for food, they will first go in 1 corridor, then when no food is found go in the next and when they have a good short term memory, go in the 3rd after that. (this is measured as alternation ratio) MK801 destroys short term memory. Etomoxir restores short term memory.
as §1

Male Wistar rats = experiment: Chronic mild stress (CMS) induced depression, sucrose consumption test; type: in vivo, rat
Excerpt: Treatment of stress-induced depression by blocking carnitine palmitoyl transferase 1 Rats were initially exposed to four weeks of CMS and subsequently exposed to stressors for another five weeks combined with drug or vehicle treatment (FIG. 7). The intake of sucrose solution was used in order to determine the depression status among rats. […] Moreover, statistical significant difference was found between Escitalopram and Etomoxir treatment in week two, four and five.
The percentage of animals responding over time receiving Etomoxir, Escitalopram or vehicle was compared (FIG. 8). The criterion for responders was set at 20% increase in intake of sucrose at the respective weeks compared to baseline prior to onset of treatment. The percentage of responding rats to Etomoxir treatment was higher than Escitalopram treatment.
Male Wistar rats were used for the CMS model. The weight of the rats was approximately 200 g when the experiment was initiated. The rats were housed singly with 12 h light/dark cycle and food and water was available ad libitum except when these parameters were applied as stress inducers. The following paragraphs concerning the CMS model was performed according to the protocol by Wiborg et al.
In order to quantify the hedonic state of the animals a sucrose consumption test was performed. The animals were trained in five weeks in order to consume a palatable sucrose solution. […]

Structure (SMILES): CCOC(=O)[C@@]1(CCCCCCOc2ccc(Cl)cc2)CO1 [R(+)-etomoxir ethyl ester, R(+)-2-[6-(4-chlorophenoxy)hexyl]-oxirane-2-carboxylic acid ethyl ester]
- sucrose consumption (rats [1]; 4 mg/day in drinking water, every day for 20 days, measured once a week): increased sucrose consumption
- crossing of the blood-brain-barrier (BBB) (rats [1]; oral (drinking water), concluded from increased sucrose consumption): can cross the blood-brain-barrier (BBB) and reach the brain
- animals with restored long term memory (rats [2]): 40%
- symptom-free animals at the end of the study (C57B16 mice): 52%
- therapeutic effects when started at day 1 or day 5 (Lewis rats; treatment from day 1 or day 5 after induction, compared with placebo): significantly better therapeutic effects compared to IFNb
- disease- and symptom-free rats (Lewis rats; treatment started at day 7 after induction, read at day 11 (end of study)): 25%
- short term memory (rats [3]): restores the animal's short term memory

Structure (SMILES): CN(C)CCC[C@@]1(c2ccc(F)cc2)OCc2cc(C#N)ccc21 [Escitalopram]
- percentage of responding (healthy) rats (Male Wistar rats; 5 weeks of treatment with continued stress, responder = 20% increase in sucrose intake vs baseline): 57%
- intake of sucrose solution compared to vehicle group (Male Wistar rats; five weeks of i.p. daily treatment under stress, Etomoxir 4 mg/kg, Escitalopram 5 mg/kg): no significant difference
